Reference: patent US8642656B2, “Calixarene-based peptide conformation mimetics, methods of use, and methods of making” (priority 2004, dated 2014)
Where two headings read alike, the source gives them in different places.

Assays:
Assay in all cases: LPS neutralization assay (Limulus amoebocyte lysate, QCL-1000)
LPS from K. pneumoniae = assay type: biochemical, Klebsiella pneumoniae; conditions: read-out: IC50 values (μM) for LPS binding, Klebsiella
Source text: (§1) The ability of compounds to neutralize endotoxin was detected in vitro by using the chromogenic QCL-1000 kit from BioWhittaker, Inc. (Walkersville, Md.), and as described in their protocol. This Limulus amoebocyte lysate (LAL) assay is quantitative for Gram negative bacterial endotoxin (lipopolysaccharide, LPS). In this assay compounds that are active inhibit the LPS-mediated activation of a proenzyme whose active form would release p-nitroaniline (pNA) from a colorless synthetic substrate producing a yellow color (pNA) whose absorption is monitored spectrophotometrically at 405-410 nm. The initial rate of enzyme activation is proportional to the concentration of endotoxin present.
(§2) Variants of LPS from six Gram negative bacteria were used: E. coli serotypes 0111:B4 (Combrex, Walkersville, Md.) and 055:B5 (Sigma, St. Louis, Mo.); Klebsiella pneumoniae (List Biologies, San Jose, Calif.); Pseudomonas aeruginosa (List Biologies, San Jose, Calif.); Salmonella typhimurium (List Biologies, San Jose, Calif.), and Serratia marcascens (List Biologies, San Jose, Calif.). The concentration of compound required to neutralize a given LPS and therefore to inhibit the Limulus amoebocyte lysate driven by 0.04 units of any given LPS was determined by dose response curves fit by using a standard sigmoidal function to determined the JC50 value for each lopomimetic compound. The 0.04 units corresponds to 0.01 ng LPS from E. coli serotype 055:B5, 0.01 ng LPS from E. coli serotype 0111:B4, 0.003 ng LPS from K. pneumoniae, 0.01 ng LPS from P. aeruginosa, 0.03 ng LPS from S. typhimurium, and 0.03 ng LPS from S. marcascens.

[1] = test system: LPS from E. coli serotype 055:B5; assay type: biochemical
Source text: as §1, §2

[2] = test system: LPS from E. coli serotype 0111:B4; assay type: biochemical; conditions: read-out: IC50 values (μM) for LPS binding, E. coli 0111:B4
Source text: as §1, §2

LPS from S. marcascens = assay type: biochemical, Serratia marcascens; conditions: read-out: IC50 values (μM) for LPS binding, Serratia
Source text: as §1, §2

LPS from P. aeruginosa = assay type: biochemical, Pseudomonas aeruginosa; conditions: read-out: IC50 values (μM) for LPS binding, P.a.
Source text: as §1, §2

LPS from S. typhimurium = assay type: biochemical, Salmonella typhimurium; conditions: read-out: IC50 values (μM) for LPS binding, Salmonella
Source text: as §1, §2

[3] = Table 3, errors estimated ±30%, read-out: IC50 values (μM) for LPS binding, E. coli 055:B5
[4] = Table 2, read-out: IC50 values (μM) for LPS binding, E. coli 055:B4

25,27-Bis[N—(N,N-dimethyl-2-aminoethyl)carbamoylmethoxy]-26,28-dihydroxy calix[4]arene [Compound 38]
IC50 (LPS from K. pneumoniae; Table 3, errors estimated ±30%): > 5 µM
IC50 [1, 3]: > 5 µM
IC50 ([2]; Table 3, errors estimated ±30%): > 5 µM
IC50 (LPS from S. marcascens; Table 3, errors estimated ±30%): > 5 µM
IC50 (LPS from P. aeruginosa; Table 3, errors estimated ±30%): > 5 µM
IC50 (LPS from S. typhimurium; Table 3, errors estimated ±30%): > 5 µM

NCCNC(=O)COc1c2cccc1Cc1cccc(c1O)Cc1cccc(c1OCC(=O)NCCN)Cc1cccc(c1O)C2 [Compound 20]
IC50 (LPS from K. pneumoniae; Table 2): > 5 µM
IC50 [1, 4]: > 5 µM
IC50 ([2]; Table 2): > 5 µM
IC50 (LPS from S. marcascens; Table 2): > 5 µM
IC50 (LPS from P. aeruginosa; Table 2): > 5 µM
IC50 (LPS from S. typhimurium; Table 2): 1.2 µM

CC(C)CCOc1c2cccc1Cc1cc(CCCOS(=O)(=O)O)cc(c1O)Cc1cccc(c1OCCC(C)C)Cc1cc(CCCOS(=O)(=O)O)cc(c1O)C2 [Compound 49]
IC50 (LPS from K. pneumoniae; Table 2): 2.1 µM
IC50 (LPS from K. pneumoniae; Table 3, errors estimated ±30%): 2.1 µM
IC50 [1, 4]: 5 µM
IC50 [1, 3]: 5 µM
IC50 ([2]; Table 2): 5 µM
IC50 ([2]; Table 3, errors estimated ±30%): 5 µM
IC50 (LPS from S. marcascens; Table 2): 4.2 µM
IC50 (LPS from S. marcascens; Table 3, errors estimated ±30%): 4.2 µM
IC50 (LPS from P. aeruginosa; Table 2): > 5 µM
IC50 (LPS from P. aeruginosa; Table 3, errors estimated ±30%): > 5 µM
IC50 (LPS from S. typhimurium; Table 2): > 5 µM
IC50 (LPS from S. typhimurium; Table 3, errors estimated ±30%): > 5 µM

5,17-Di-(hydroxycabonyl)ethyl-25,27-di-(3-methylbutoxy)-26,28-dihydroxycalix[4]arene [Compound 47]
IC50 (LPS from K. pneumoniae; Table 2): > 5 µM
IC50 (LPS from K. pneumoniae; Table 3, errors estimated ±30%): > 5 µM
IC50 [1, 4]: > 5 µM
IC50 [1, 3]: > 5 µM
IC50 ([2]; Table 2): > 5 µM
IC50 ([2]; Table 3, errors estimated ±30%): > 5 µM
IC50 (LPS from S. marcascens; Table 2): > 5 µM
IC50 (LPS from S. marcascens; Table 3, errors estimated ±30%): > 5 µM
IC50 (LPS from P. aeruginosa; Table 2): > 5 µM
IC50 (LPS from P. aeruginosa; Table 3, errors estimated ±30%): > 5 µM
IC50 (LPS from S. typhimurium; Table 2): > 5 µM
IC50 (LPS from S. typhimurium; Table 3, errors estimated ±30%): > 5 µM

25,27-Bis(2-guanidinoethoxy)-26,28-dihydroxy calix[4]arene trifluoroacetic acid salt [Compound 36]
IC50 (LPS from K. pneumoniae; Table 3, errors estimated ±30%): > 5 µM
IC50 [1, 3]: 4.1 µM
IC50 ([2]; Table 3, errors estimated ±30%): 3.9 µM
IC50 (LPS from S. marcascens; Table 3, errors estimated ±30%): > 5 µM
IC50 (LPS from P. aeruginosa; Table 3, errors estimated ±30%): > 5 µM
IC50 (LPS from S. typhimurium; Table 3, errors estimated ±30%): > 5 µM

25,27-Bis[N-(2-aminoethyl)carbamoylmethoxy]-26,28-dihydroxy calix[4]arene [Compound 39]
IC50 (LPS from K. pneumoniae; Table 2): 0.3 µM
IC50 (LPS from K. pneumoniae; Table 3, errors estimated ±30%): > 5 µM
IC50 [1, 4]: 0.9 µM
IC50 [1, 3]: > 5 µM
IC50 ([2]; Table 2): 1.6 µM
IC50 ([2]; Table 3, errors estimated ±30%): > 5 µM
IC50 (LPS from S. marcascens; Table 2): 1.5 µM
IC50 (LPS from S. marcascens; Table 3, errors estimated ±30%): > 5 µM
IC50 (LPS from P. aeruginosa; Table 2): 0.8 µM
IC50 (LPS from P. aeruginosa; Table 3, errors estimated ±30%): > 5 µM
IC50 (LPS from S. typhimurium; Table 2): 0.6 µM
IC50 (LPS from S. typhimurium; Table 3, errors estimated ±30%): > 5 µM

5,17-Di-(2-methylpropyl)-11,23-dipropyl-25,26,27,28-tetrakis-N—(N,N-dimethyl-2-aminoethyl)carbamoylmethoxy calix[4]arene [Compound 17]
IC50 (LPS from K. pneumoniae; Table 3, errors estimated ±30%): 2.1 µM
IC50 [1, 3]: 3.8 µM
IC50 ([2]; Table 3, errors estimated ±30%): 3.7 µM
IC50 (LPS from S. marcascens; Table 3, errors estimated ±30%): > 5 µM
IC50 (LPS from P. aeruginosa; Table 3, errors estimated ±30%): > 5 µM
IC50 (LPS from S. typhimurium; Table 3, errors estimated ±30%): 3.1 µM

CCCc1cc2c(OCC(=O)NCCN(C)C)c(c1)Cc1cc(CCC)cc(c1OCC(=O)NCCN(C)C)Cc1cc(CCC)cc(c1OCC(=O)NCCN(C)C)Cc1cc(CCC)cc(c1OCC(=O)NCCN(C)C)C2 [Compound 11b]
IC50 (LPS from K. pneumoniae; Table 3, errors estimated ±30%): 0.4 µM
IC50 [1, 3]: 0.05 µM
IC50 ([2]; Table 3, errors estimated ±30%): 2.7 µM
IC50 (LPS from S. marcascens; Table 3, errors estimated ±30%): > 5 µM
IC50 (LPS from P. aeruginosa; Table 3, errors estimated ±30%): > 5 µM
IC50 (LPS from S. typhimurium; Table 3, errors estimated ±30%): 0.8 µM

5,17-Di-(2-methallyl)-11,23-diallyl-25,26,27,28-tetrakis-N—(N,N-dimethyl-2-aminoethyl) carbamoylmethoxy calix[4]arene [Compound 41]
IC50 (LPS from K. pneumoniae; Table 3, errors estimated ±30%): > 5 µM
IC50 [1, 3]: 3.6 µM
IC50 ([2]; Table 3, errors estimated ±30%): 4.7 µM
IC50 (LPS from S. marcascens; Table 3, errors estimated ±30%): > 5 µM
IC50 (LPS from P. aeruginosa; Table 3, errors estimated ±30%): > 5 µM
IC50 (LPS from S. typhimurium; Table 3, errors estimated ±30%): > 5 µM

CC(C)(C)c1cc2c(OCC(=O)NCCN)c(c1)Cc1cc(C(C)(C)C)cc(c1OCC(=O)NCCN)Cc1cc(C(C)(C)C)cc(c1OCC(=O)NCCN)Cc1cc(C(C)(C)C)cc(c1OCC(=O)NCCN)C2 [Compound 4]
IC50 (LPS from K. pneumoniae; Table 2): 0.4 µM
IC50 (LPS from K. pneumoniae; Table 3, errors estimated ±30%): 0.3 µM
IC50 [1, 4]: 0.05 µM
IC50 [1, 3]: 0.9 µM
IC50 ([2]; Table 2): 2.7 µM
IC50 ([2]; Table 3, errors estimated ±30%): 1.6 µM
IC50 (LPS from S. marcascens; Table 2): > 5 µM
IC50 (LPS from S. marcascens; Table 3, errors estimated ±30%): 1.5 µM
IC50 (LPS from P. aeruginosa; Table 2): > 5 µM
IC50 (LPS from P. aeruginosa; Table 3, errors estimated ±30%): 0.8 µM
IC50 (LPS from S. typhimurium; Table 2): 0.8 µM
IC50 (LPS from S. typhimurium; Table 3, errors estimated ±30%): 0.6 µM

5,11,17,23-Tetra-tert-butyl-25-(2-aminoethoxy)-27-(2-guanidinoethoxy)-26,28-dihydroxy Calix[4]arene trifluoroacetic acid salt [Compound 28]
IC50 (LPS from K. pneumoniae; Table 3, errors estimated ±30%): > 5 µM
IC50 [1, 3]: 4.1 µM
IC50 ([2]; Table 3, errors estimated ±30%): > 5 µM
IC50 (LPS from S. marcascens; Table 3, errors estimated ±30%): > 5 µM
IC50 (LPS from P. aeruginosa; Table 3, errors estimated ±30%): > 5 µM
IC50 (LPS from S. typhimurium; Table 3, errors estimated ±30%): 2.6 µM
